These results are taken from patent publication US7572765B2, “Conformationally constrained parathyroid hormone (PTH) analogs” (The General Hospital Corporation, priority 2001, dated 2009).

A short description of the data set: Circular dichroism spectroscopy (helical content). The class given is physicochemical. Conditions: for [0]222obs × 10^−3, Phos. / [0]222obs × 10^−3, Phos + TFE: 20 μM peptide; for [0]222obs × 10^−3, Phos.: 50 mM phosphate buffer pH 7.4; for [0]222obs × 10^−3, Phos + TFE / helical residues (%), Phos + TFE: 50 mM phosphate buffer with trifluoroethanol (20%); for helical residues (%), Phos + TFE / helical residues (%), Phos.: from elipticity at 222 nM; for helical residues (%), Phos.: 50 mM phosphate buffer. How it is done:
Circular Dichroism. Circular Dichroism spectra were recorded on a Jasco model 710 spectropolarimeter; peptides were analyzed at a concentration of20 μM in 50 mM sodium phosphate buffer pH 7.4, or the same buffer containing 2,2,2-trifluoroethanol at 20% (v/v). Spectroscopic scans were preformed at 20° C. and at wavelengths between […], with data recored at each 1 nM interval. The spectral bandwidth was 1.5 nM and 8 scans were accumulated and averaged for each sample. At each wavelength, the mean residue elipticity [θ×100/l×C×n); where θ is the raw elipticity value (in dimensions of millidegree), l is the sample path length, C=is the molar peptide concentration, and n is the number of residues in the peptide (Bowen, W. P., and Jerman, J. C., Trends in Pharmacol. Sci. 16: 413-417 (1995)). The helical content of each peptide was estimated by dividing [θ] observed at 222 nM for that peptide by −28,100, which is the reported [θ]222obs for a model helical decapeptide (Bowen, W. P., and Jerman, J. C., Trends in Pharmacol. Sci. 16: 413-417 (1995)).
Circular dichroism (CD) spectroscopy was used to analyze the potential effects that the Aib substitutions had on peptide secondary structure when the peptides were free in solution. Samples were analyzed in both aqueous phosphate buffer and in phosphate buffer containing 2,2,2-trifloroethanol, an organic solvent which promotes helical structure in oligopeptides, including PTH peptide fragments (Pellegrini, M., et al., J. Biol. Chem. 273:10420-10427 (1998); Gronwald, W., et al., Biol. Chem. Hoppe Seyler 377:175-186 (1996); Barden, J. A., and Kemp, B. E., Biochemistry 32:7126-7132 (1993)). In phosphate buffer, the helical content of each peptide, estimated from the elipticity observed at 222 nM, was small (≦16%); however, [Aib^1,3,M]PTH(1-14) contained nearly twice as much helix as did [M]PTH(1-14) (16% and 8.1% respectively), as did [Aib^1,3,M]PTH(1-1l), as compared to […] (13% and 7.5% respectively, Table 4). […] The higher helical contents of these two peptides were evident not only from the negative elipticities at […] and 222 nM, but also from the positive elipticities at 192 nM (FIG. 6).

Square brackets hold non-standard residues; d marks the D form. Peptide text beside a SMILES is read from it. hArg = N=C(N)NCCCC[C@H](N)C(=O)O; Aib = CC(C)(N)C(=O)O

In the case of `CC[C@H](C)[C@H](NC(=O)[C@H](CCC(=O)O)NC(=O)C(C)(C)NC(=O)[C@@H](NC(=O)C(C)(C)N)C(C)C)C(=O)N[C@@H](CCC(N)=O)C(=O)N[C@@H](CC(C)C)C(=O)N[C@@H](CCSC)C(=O)N[C@@H](Cc1c[nH]cn1)C(=O)N[C@@H](CCC(N)=O)C(N)=O` [[Aib^1,3,M]PTH(1-10), [Aib^1,3,Gln^10]PTH(1-10)] (H-[Aib]V[Aib]EIQLMHQ-NH2), the “[0]222obs × 10^−3, Phos.” value is −3.2; the “[0]222obs × 10^−3, Phos + TFE” value is given as −13.1; the “helical residues (%), Phos + TFE” value is listed as “approximately 47%”; the “helical residues (%), Phos.” value was 11%. Besides, for the setting “M]PTH(1-10)”, the “helical residues (%), Phos + TFE” value is on record as 47%.
For `CC[C@H](C)[C@H](NC(=O)[C@H](CCC(=O)O)NC(=O)C(C)(C)NC(=O)[C@@H](NC(=O)C(C)(C)N)C(C)C)C(=O)N[C@@H](CCC(N)=O)C(=O)N[C@@H](CC(C)C)C(=O)N[C@@H](CCSC)C(=O)N[C@@H](Cc1c[nH]cn1)C(=O)N[C@@H](CCC(N)=O)C(=O)N[C@@H](CCCCNC(=N)N)C(N)=O` [[Aib^1,3,M]PTH(1-11), AibValAibGluIleGlnLeuMetHisGlnHar] (H-[Aib]V[Aib]EIQLMHQ[hArg]-NH2), the “[0]222obs × 10^−3, Phos.” value is given as −3.7; the “[0]222obs × 10^−3, Phos + TFE” value is −16.1; the “helical residues (%), Phos + TFE” value is reported as 57%; the “helical residues (%), Phos.” value was 13%.
On the same counts, the results for `CC[C@H](C)[C@H](NC(=O)[C@H](CCC(=O)O)NC(=O)C(C)(C)NC(=O)[C@@H](NC(=O)C(C)(C)N)C(C)C)C(=O)N[C@@H](CCC(N)=O)C(=O)N[C@@H](CC(C)C)C(=O)N[C@@H](CCSC)C(=O)N[C@@H](Cc1c[nH]cn1)C(=O)N[C@@H](CCC(N)=O)C(=O)N[C@@H](CCCCNC(=N)N)C(=O)N[C@@H](C)C(=O)N[C@@H](CCCCN)C(=O)N[C@@H](Cc1c[nH]c2ccccc12)C(N)=O` [[Aib^1,3,M]PTH(1-14), AibValAibGluIleGlnLeuMetHisGlnHarAlaLysTrp] (H-[Aib]V[Aib]EIQLMHQ[hArg]AKW-NH2) are −4.6, −15.7, 56% and 16%.
Consider `CC[C@H](C)[C@H](NC(=O)[C@H](CCC(=O)O)NC(=O)[C@H](C)NC(=O)[C@@H](NC(=O)[C@H](C)N)C(C)C)C(=O)N[C@@H](CCC(N)=O)C(=O)N[C@@H](CC(C)C)C(=O)N[C@@H](CCSC)C(=O)N[C@@H](Cc1c[nH]cn1)C(=O)N[C@@H](CCC(N)=O)C(=O)N[C@@H](CCCCNC(=N)N)C(=O)N[C@@H](C)C(=O)N[C@@H](CCCCN)C(=O)N[C@@H](Cc1c[nH]c2ccccc12)C(N)=O` [[M]PTH(1-14), [Ala^3,12,Gln^10,Har^11,Trp^14]PTH(1-14)amide, reference compound] (H-AVAEIQLMHQ[hArg]AKW-NH2), for which the “[0]222obs × 10^−3, Phos.” value is listed as −2.3; the “[0]222obs × 10^−3, Phos + TFE” value is on record as −11.9; the “helical residues (%), Phos + TFE” value was 42%; the “helical residues (%), Phos.” value is listed as 8.1%.
On the same counts, the results for “H-AVSEIQLMHNLGKH-NH2 [PTH(1-14), reference compound]” are −2.6, −10.6, 38% and 9.1%.
